Test results: US5726162A (priority 1996, dated 1998)
Where two headings read alike, the source gives them in different places.

Experiments:
[1] = tested on: fungal inoculum; experiment: organism not typed; type: cell-based; settings: read-out: % growth inhibition
[2] = tested on: Magnaporthe grisea (Pyricularia oryzae); experiment: whole plant or invertebrate; type: in vivo, Magnaporthe grisea (Pyricularia oryzae) on M201 rice plants; settings: Pyricularia oryzae, 144 h, read-out: % Control RB
[3] = tested on: fungal mycelium; experiment: organism not typed; type: cell-based; settings: read-out: % growth inhibition
[4] = tested on: Candida albicans; experiment: Activity against Candida albicans in microtiter plates, % control of growth; type: cell-based
Experimental: The activity against Candida albicans was determined using the following test protocol.
Conidia and mycelium from the Candida albicans culture maintained on potato dextrose agar plates were lightly scraped off into yeast extract-dextrose broth (YDB) so that mostly conidia was used as inoculum. The conidial suspsension was strained through a double layer of cheesecloth to remove mycelial clumps. The inoculum mixture was placed in microtiter plates using a 12-tipped pipet. 175 microliters were placed in each well of the microliter plates and the plates were placed in the refrigerator overnight. There were two replications.
The compounds to be tested were dissolved in 1:1 acetone:methanol and 100 ppm of the compound solution were placed in a well of the prepared microtiter plates.
The microtiter plates were incubated for 7 days at room temperature after addition of the compounds. Percent control was visually estimated using a microtiter plate reading mirror. Readings were made at 1, 2, 3, and/or 7 days after treatment.

[5] = 24 h, 1 day after treatment, read-out: % control of growth +1
[6] = 48 h, 2 days after treatment, read-out: % control of growth +2
[7] = 72 h, 3 days after treatment, read-out: % control of growth +3

Row | SMILES | inhibition at 50 ppm [1] | pest or weed control at 200 ppm [2] | other results
1 | C=C=CN1N=C(c2ccc(Cl)cc2)CCC1=O [Compound 52] | 93.7% | 0% | 
2 | CCC#CCN1N=C(c2ccc(Cl)cc2F)CCC1=O [Compound 73] | 94.4% | 95% | 
3 | CC#CCN1N=C(c2ccccc2)CCCC1=O [Compound 139, 2-(2-butynyl)-7-phenyl-1,2-diazapin-3-one] |  | 0% | inhibition at 100 ppm [1]: 65%
4 | CCC#CCn1nc(-c2ccc(Br)cc2)ccc1=O [Compound 121] |  | 95% | inhibition at 1 ppm [3]: 100%; inhibition of growth at 100 ppm [4, 5]: 100%; inhibition of growth at 100 ppm [4, 6]: 100%; inhibition of growth at 100 ppm [4, 7]: 100%
5 | CCC#CCN1N=C(c2ccc(OC(F)(F)F)c(F)c2)CCC1=O [Compound 92] |  | 90% | inhibition at 1 ppm [1]: 100%
6 | CCC#CCN1N=C(c2ccc3ccccc3c2)CCC1=O [Compound 136] |  | 99% | inhibition at 1 ppm [1]: 84.6%
7 | CCC#CCN1N=C(c2ccc(Cl)c(Cl)c2)CCC1=O [Compound 28, 6-(3,4-dichlorophenyl)-2-(2'-pentynyl)-4,5-dihydropyridazinone] |  | 95% | inhibition at 1 ppm [1]: 100%
8 | CCC#CCn1nc(-c2ccc(Cl)cc2C)ccc1=O [Compound 115] | 93.7% | 50% | 
9 | O=C1CCC(c2ccc(Cl)cc2)=NN1CC1CC1 [Compound 25] | 100% | 50% | 
10 | O=C1CCC(c2ccc(Cl)cc2)=NN1CC#CC1CO1 (centres unmarked) [Compound 77] |  | 0% | inhibition at 10 ppm [1]: 89.2%
11 | CCC#CCN1N=C(c2ccc(CC)cc2)CCC1=O [Compound 59] |  | 0% | inhibition at 10 ppm [1]: 100%
12 | O=C1CCC(c2ccc(Cl)cc2)=NN1Cc1cccs1 [Compound 36, 6-(4-chlorophenyl)-2-(2'-thienylmethyl)-4,5-dihydropyridazinone] | 100% | 90% | 
13 | CC(=O)OC(C)C#CCN1N=C(c2ccc(Cl)cc2)CCC1=O (centres unmarked) [Compound 49, 6-(4-chlorophenyl)-2-(4'acetoxy-2'-pentynyl)-4,5-dihydropyridazinone] | 100% | 90% | 
14 | O=C1CCC(c2ccc(Cl)cc2)=NN1CC#CCCl [Compound 72, 6-(4-chlorophenyl)-2-(4'-chloro-2'-butynyl)-4,5-dihydropyridazinone] |  | 90% | inhibition at 0.5 ppm [1]: 96.2%
15 | CCC#CCN1N=C(c2ccc(Cl)c([N+](=O)[O-])c2)CCC1=O [Compound 40] |  | 0% | inhibition at 5 ppm [1]: 95.7%
16 | CCC#CCn1nc(-c2ccc(C(C)(C)C)cc2)ccc1=O [Compound 111] |  | 0% | inhibition at 25 ppm [1]: 100%
17 | O=C1CCC(c2ccc(Cl)cc2)=NN1CC#CCF [Compound 76, 6-(4-chlorophenyl)-2-(4'-fluoro-2'-butynyl)-4,5-dihydropyridazinone] |  | 0% | inhibition at 10 ppm [3]: 100%; inhibition of growth at 100 ppm [4, 5]: 100%; inhibition of growth at 100 ppm [4, 6]: 100%; inhibition of growth at 100 ppm [4, 7]: 100%
18 | CCC#CCn1cc(-c2ccc(Cl)cc2)cc(C#N)c1=O [Compound 146, 5-(4-chlorophenyl)-3-cyano-1-(2-pentyn-1-yl)-2-pyridinone] |  | 0% | inhibition at 10 ppm [1]: 5%
19 | CCCC#CCN1N=C(c2ccc(Cl)cc2)CCC1=O [Compound 29] |  | 95% | inhibition at 1 ppm [1]: 86.1%
20 | CC(C)=CCN1N=C(c2ccc(Cl)cc2)CCC1=O [Compound 32] |  | 0% | inhibition at 100 ppm [1]: 100%
21 | O=C1CCC(c2ccc(Cl)cc2)=NN1CC#CCBr [Compound 71] | 92.6% | 0% | 
22 | CC#CCN1N=C(c2ccc(Cl)cc2)C(C)CC1=O (centres unmarked) [Compound 26, 6-(4-chlorophenyl)-5-methyl-2-(2'-butynyl)-4,5-dihydropyridazinone] | 96.3% | 95% | 
23 | CCC#CCn1nc(-c2ccc(Cl)c(C)c2)ccc1=O [Compound 113] |  | 95% | inhibition at 10 ppm [1]: 64.3%
24 | O=C1CCC(c2ccc(Cl)cc2)=NN1CC#CC(F)=C(F)F [Compound 78] |  | 0% | inhibition at 0.5 ppm [1]: 100%
25 | CC#CCn1nc(-c2ccc(Cl)c(C)c2)ccc1=O [Compound 114] |  | 50% | inhibition at 5 ppm [1]: 100%
